Like-named read-outs stand apart in the source and are kept apart here. *1 amine or outer side, *2 acyl side, *3 side chain or, on linkers, in order; H or OH if unused. Where a SMILES comes first, the peptide text is derived from it. [ ]: non-standard residue; d: D form. d(γGlu) = O=C(O)[C@@H](CCC(=O)[*:2])N[*:1]
How the values were obtained:
LdtMt2 [1] = molecular target: T1, LdtMt2 (Mycobacterium tuberculosis, UniProt I6Y9J2); experiment: biochemical; type: biochemical
LdtMt2 [2] = molecular target: T1, LdtMt2; experiment: biochemical; type: binding; conditions: for ΔTm at 500 µM: pH 7.5, read-out: Shift in melting temperature compared to unmodified LdtMt2, 500 µM; for ΔTm at 1000 µM: pH 7.5, read-out: Shift in melting temperature compared to unmodified LdtMt2, 1 mM; for Shift in melting temperature compared to unmodified LdtMt2, 500 µM / Shift in melting temperature compared to unmodified LdtMt2, 1 mM / Tm 500 µM / Tm 1 mM: pH 7.5
Description: Differential scanning fluorometric thermal shift assays[32]
LdtMt2 (5 µM) was incubated with peptidoglycan fragments (500 µM or 1 mM) in buffer (50 mM tris pH 7.5) for 30 minutes at room temperature, after which time SYPRO Orange (final concentration 6x, according to manufacturer’s definition, Invitrogen) was added. Melting temperatures […]
See Methods for experimental details.
Table S1. […] The melting

LdtMt2 [3] = molecular target: T1, LdtMt2; conditions: thiol-reactive fluorescent probe assay; quadruplicate; ref 6,7 (supplement); cited from earlier work
DAAO and HRP = experiment: Transpeptidase interference assay (no LdtMt2, D-Ala as substrate); type: biochemical; conditions: for Transpeptidase interference assay pIC50 (mean ± SD): DAAO 2 U/mL, HRP 2 U/mL, FAD 40 µM, Amplex red 10 µM, 30 min rt, then D-alanine 500 nM, pH 8.0, quadruplicate
Description: The transpeptidase interference assay was performed as described above, with the modification that the LdtMt2 mixture was replaced by 5 µL assay buffer, and the substrate was replaced by D-Ala (500 nM final concentration). Data were analysed using Prism 10 (GraphPad).
Figure S14. Dose-response curves of the transpeptidase interference assay with compounds
14-24. The specified inhibitors were incubated with DAAO (2 U/mL), HRP (2 U/mL), FAD (40 μM) and
Amplex red (10 μM) in 50 mM sodium phosphate pH 8.0 with 100 mM NaCl at room temperature for 30
minutes, after which time D-alanine (500 nM) was added. The pIC50 values and compound structures
See Methods for experimental details. Individual data points are shown.

LdtMt2 [4] = molecular target: T1, LdtMt2; type: biochemical; conditions: pH 7.5
LdtMt2 [5] = molecular target: T1, LdtMt2; conditions: pH 8
LdtMt2 [6] = molecular target: T1, LdtMt2; conditions: pH 7.5
LdtMt2 [7] = molecular target: T1, LdtMt2; conditions: cited from earlier work
[8] = LdtMt2 500 nM, 30 min preincubation rt, substrate 1 35 µM, pH 8.0, 37 °C, n=3, read-out: pIC50, LdtMt2 inhibition by non-substrate peptidoglycan fragments (converted)

T1 sequence (I6Y9J2 56-408): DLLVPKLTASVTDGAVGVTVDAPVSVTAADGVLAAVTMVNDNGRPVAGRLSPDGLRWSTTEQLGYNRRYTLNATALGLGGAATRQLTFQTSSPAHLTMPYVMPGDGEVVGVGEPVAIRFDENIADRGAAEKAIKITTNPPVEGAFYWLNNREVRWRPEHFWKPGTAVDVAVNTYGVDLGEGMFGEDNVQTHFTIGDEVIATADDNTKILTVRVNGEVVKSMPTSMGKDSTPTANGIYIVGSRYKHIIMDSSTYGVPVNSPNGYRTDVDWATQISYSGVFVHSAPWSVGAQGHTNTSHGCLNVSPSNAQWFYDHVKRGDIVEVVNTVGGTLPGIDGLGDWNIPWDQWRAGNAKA

In the case of `C[C@H](N)C(=O)N[C@H](CCC(=O)N[C@@H](CCCCN)C(=O)N[C@H](C)C(=O)N[C@H](C)C(=O)O)C(=O)O` [Compound 8, L-Ala-D-iGlu-L-Lys-D-Ala-D-Ala, reference compound], the IC50 (LdtMt2 [1]; [8]) is reported as 15.8 µM, the ΔTm at 500 µM (LdtMt2 [2]) is reported as 1.5 °C and the ΔTm at 1000 µM (LdtMt2 [2]) is reported as 2 °C.
`C[C@H](N)C(=O)N[C@H](CCC(=O)N[C@@H](CCCCN)C(=O)N[C@H](C)C(=O)O)C(=O)O` [Compound 10, L-Ala-D-iGlu-L-Lys-D-Ala, reference compound] (H-A[d(γGlu)]K[dA]-OH) showed an IC50 (LdtMt2 [1]; [8]) of 15.8 µM, a ΔTm at 500 µM (LdtMt2 [2]) of 1.5 °C and a ΔTm at 1000 µM (LdtMt2 [2]) of 3 °C.
With `C[C@H](N)C(=O)N[C@H](CCC(=O)N[C@@H](CCC[C@@H](N)C(=O)O)C(=O)O)C(=O)O` [Compound 12, reference compound] the ΔTm at 500 µM (LdtMt2 [2]) was 0.5 °C and the ΔTm at 1000 µM (LdtMt2 [2]) was 1 °C.
Compound `N[C@H](CCC[C@H](NC(=O)CC[C@@H](N)C(=O)O)C(=O)O)C(=O)O` [Compound 13, D-γ-Glu-m-DAP, reference compound] has a ΔTm at 500 µM (LdtMt2 [2]) of 1 °C and a ΔTm at 1000 µM (LdtMt2 [2]) of 1.5 °C.
For `C[C@@H](O)[C@H]1C(=O)N2C(C(=O)O)=C(S[C@@H]3CN[C@H](C(=O)N(C)C)C3)[C@H](C)[C@H]12` [Compound 14, Meropenem], the IC50 (LdtMt2 [1]; LdtMt2 500 nM, 30 min preincubation rt, substrate 1 35 µM, 50 mM sodium phosphate pH 8.0, 100 mM NaCl, 37 °C, quadruplicate, read-out: Transpeptidase activity assay pIC50 (mean ± SD) (converted)) is listed as 0.631 µM, the “Fluorogenic probe assay pIC50 (mean ± SD)” value (LdtMt2 [3]) is listed as 5.9 ± 0.04 and the “Transpeptidase interference assay pIC50 (mean ± SD)” value (DAAO and HRP) is listed as less than 4.0.
In the case of `C[C@@H](O)[C@H]1C(=O)N2C(C(=O)O)=C([C@H]3CCCO3)S[C@H]12` [Compound 15, Faropenem], the “Transpeptidase interference assay pIC50 (mean ± SD)” value (DAAO and HRP) is reported as less than 4.0.
In the case of `O=c1c2ccccc2[se]n1-c1ccccc1` [Compound 24, Ebselen], the “Transpeptidase activity assay pIC50 (mean ± SD)” value (LdtMt2 [1]; LdtMt2 500 nM, 30 min preincubation rt, substrate 1 35 µM, 50 mM sodium phosphate pH 8.0, 100 mM NaCl, 37 °C, quadruplicate) is given as 6.8 ± 0.2, the “Fluorogenic probe assay pIC50 (mean ± SD)” value (LdtMt2 [3]) is given as 6.7 ± 0.04 and the “Transpeptidase interference assay pIC50 (mean ± SD)” value (DAAO and HRP) is given as 5.0 ± 0.4. For the same compound, the “Interference with the DAAO/HRP assay” value (DAAO and HRP; inhibition of DAAO and HRP, in words) was “cause interference”.
For “GlcNAc-MurNAc-L-Ala-D-iGluNH2-m-DAPNH2-D-Ala [Compound 1]”, the “LdtMt2 turnover / transpeptidase product formation (LC-MS)” value (LdtMt2 [4]) was “led to formation of products”, the Reaction rate (LdtMt2 [5]) was 120.0 ± 1.7 RFU min^−1 and the Vmax (LdtMt2 [5]) was “Ambiguous”. For the same compound, the “Shift in melting temperature compared to unmodified LdtMt2, 500 µM” value (LdtMt2 [2]) was “+1.5 °C”, the “Shift in melting temperature compared to unmodified LdtMt2, 1 mM” value (from here on “Shift in melting temperature … 1 mM”) (LdtMt2 [2]) was “+2.0 °C” and the “Tm 500 µM” value (LdtMt2 [2]) was 45 °C. The “Tm 1 mM” value (LdtMt2 [2]) was 45.5 °C and the “Covalent adducts of LdtMt2 (SPE-MS)” value (LdtMt2 [6]) was “no covalent adducts of LdtMt2 were observed”.
With “GlcNAc-MurNAc-L-Ala-D-iGluNH2-m-DAPNH2-D-Ala-D-Ala [Compound 4]” the “LdtMt2 inhibition by non-substrate peptidoglycan fragments, in words” value (LdtMt2 [1]; pH 8) was “modest LdtMt2 inhibition”, the “LdtMt2 turnover / transpeptidase product formation (LC-MS)” value (LdtMt2 [4]) was “did not manifest evidence for reaction” and the “Shift in melting temperature … 1 mM” value (LdtMt2 [2]) was “+2.5 °C”. The “Tm 500 µM” value (LdtMt2 [2]) was 45.5 °C and the “Tm 1 mM” value (LdtMt2 [2]) was 46 °C.
For “GlcNAc-Muramitol-L-Ala-D-iGluNH2-m-DAPNH2-D-Ala [Compound 2]”, the “LdtMt2 turnover / transpeptidase product formation (LC-MS)” value (LdtMt2 [4]) was “led to formation of products”.
In the case of “GlcNAc-muramitol-L-Ala-D-iGluNH2-m-DAPNH2-D-Ala-D-Ala [reduced pentapeptide monomer of Mtb]”, the “LdtMt2 substrate or not” value (LdtMt2 [7]) is given as “is not an LdtMt2 substrate”.
With “L-Ala-D-iGluNH2-L-Lys-D-Ala [Compound 11]” the “LdtMt2 turnover / transpeptidase product formation (LC-MS)” value (LdtMt2 [4]) was “is not a substrate for LdtMt2”.
In the case of “lactoyl-L-Ala-D-iGluNH2-m-DAPNH2-D-Ala [Compound 3]”, the “LdtMt2 turnover / transpeptidase product formation (LC-MS)” value (LdtMt2 [4]) is reported as “led to formation of products”, the Km (LdtMt2 [5]) is reported as 6.2 mM and the Reaction rate (LdtMt2 [5]) is reported as 224.2 ± 2.6 RFU min^−1. It also gave a Vmax (LdtMt2 [5]) of 1.4 ± 0.5, a kcat (LdtMt2 [5]) of 2.6 ± 0.9 and a kcat/KM (LdtMt2 [5]) of 0.07 M⁻¹ s⁻¹. For the same compound, the kcat/Km (LdtMt2 [5]) was 0.07 M⁻¹ s⁻¹, the “Shift in melting temperature compared to unmodified LdtMt2, 500 µM” value (LdtMt2 [2]) was “+1.5 °C” and the “Shift in melting temperature … 1 mM” value (LdtMt2 [2]) was “+2.0 °C”. The “Tm 500 µM” value (LdtMt2 [2]) was 45 °C, the “Tm 1 mM” value (LdtMt2 [2]) was 45.5 °C and the “Covalent adducts of LdtMt2 (SPE-MS)” value (LdtMt2 [6]) was “no covalent adducts of LdtMt2 were observed”.
